{"source": "patent US11484539B2", "about": "“Compounds and their uses for alleviating menopause-associated symptoms” (Estetra SPRL, priority 2018, dated 2022)", "tested_on": "post-menopausal women", "assay": "Weekly frequency of moderate to severe VMS, dose-finding study", "format": "in vivo", "conditions": "for Difference with placebo, LS adjusted mean, absolute change in weekly frequency of moderate to severe VMS / Difference with placebo, LS adjusted mean, relative change in weekly frequency of moderate to severe VMS: 5 mg E4 vs placebo; for LS adjusted mean change from baseline in weekly frequency of moderate to severe VMS / LS adjusted mean relative change (%) from baseline in weekly frequency of moderate to severe VMS: 10 mg E4", "source_text": "To determine the Minimum Effective Dose (MED), firstly the selection criteria required that patients presented at least 7 moderate to severe VMS/day or at least 50 moderate to severe VMS/week in the week preceding randomization. Secondly, a placebo group was included in a double-blind fashion. Thirdly, the total patient number was such that statistical significance could be obtained between separate arms of the study. Fourthly, the absolute change from baseline in weekly frequency of moderate to severe VMS was taken into account. An analysis of covariance (ANCOVA) was performed based on the untransformed change in weekly frequency of moderate to severe VMS from baseline. Finally, the change in severity from baseline was evaluated. For this, the Severity Scoring System of VMS was documented by the subjects as follows: • a score of Mild (1) for a sensation of heat without sweating; • a score of Moderate (2) for a sensation of heat with sweating/the subject is able to continue activity; and • a score of Severe (3) for a sensation of heat with sweating/which causes cessation of activity.\nEnrolment was approximately 18 months. Individual subject participation was up to 27 weeks: up to 6 weeks pre-screening and washout, up to 4 weeks screening and run-in period, up to 91 days (13 weeks) of E4/placebo treatment followed by 2 weeks (14 days) of progestin therapy and a Follow up visit 1 week after completion of progestin therapy in non-hysterectomised subjects only.\nTo define the minimum effective dose (MED) of the oral dose of E4 by evaluating changes in frequency and in severity of moderate to severe vasomotor symptoms (VMS).\nThis was a prospective, multicentre, randomised, placebo-controlled, double-blinded, dose-finding study.\nEligible subjects were hysterectomised and non-hysterectomised post-menopausal women aged 40 to 65 years, inclusive, presenting at least 7 moderate to severe hot flushes/day or at least 50 moderate to severe hot flushes/week.\nThe subjects have met all of the following inclusion criteria at the randomization visit. These criteria were assessed during the screening period: • 1. Women aged 40 to 65 years, inclusive, presenting at least 7 moderate to severe hot flushes/day or at least 50 moderate to severe hot flushes/week in the week preceding randomization. • 2. Body Mass Index (BMI) between 18.0 and 35.0 kg/m^2, inclusive. • 3. Post-menopausal status defined as levels of follicle stimulating hormone (FSH) >40 IU/L and: • amenorrhoea for at least 12 consecutive months or, • amenorrhoea for at least 6 months with estradiol (E2)<20 pg/mL or, • at least 6 weeks post-surgical bilateral oophorectomy with or without hysterectomy with a copy of the pathology report or a statement on letterhead from the subject's physician documenting both ovaries were removed is required. • 4. For non-hysterectomised women: intact uterus with bi-layer endometrial thickness […] on TVUS. • 5. Negative pregnancy test. • 6. Good physical and mental health, in the judgement of the Principal Investigator (PI), on the basis of medical, surgical and gynaecological history, physical examination, gynaecological examination, clinical laboratory, and vital signs. • 7. Subject has provided signed and dated written informed consent before admission to the study. • 8. Subject is able to understand and comply with the protocol requirements, instructions, and protocol-stated restrictions. Exclusion Criteria:\nAll treatments (Estetrol, hereinafter, E4, [2.5 mg, 5 mg, 10 mg, 15 mg] capsule) were administered once daily (QD) per os for at least 12 consecutive weeks until the last biological assessments (Day 91 maximum) had been performed.\nIn order to analyse the data recorded in this study, treatment groups have been compared using an ANCOVA (analysis of covariance) with respect to the change in weekly frequency of moderate to severe VMS from baseline to weeks 4 and 12. […]", "key": {"[1]": {"conditions": "week 4, ANCOVA with study centre"}, "[2]": {"conditions": "week 12, ANCOVA with study centre"}}, "data": [{"molecule": "C[C@]12CC[C@@H]3c4ccc(O)cc4CC[C@H]3[C@@H]1[C@@H](O)[C@@H](O)[C@@H]2O", "note": "[E4, 1,3,5 (10)-estratrien-3,15alpha,16alpha,17beta-tetrol]", "values": [{"measurement": "Relative change (% from baseline) in weekly frequency of moderate to severe VMS, mean", "setting": "5 mg E4 QD per os, week 2", "value": "−33", "unit": "%"}, {"measurement": "Mean change from baseline in weekly frequency of moderate to severe VMS", "setting": "5 mg E4 QD per os, week 3", "value": "−24.38"}, {"measurement": "Relative change (% from baseline) in weekly frequency of moderate to severe VMS, mean", "setting": "5 mg E4 QD per os, week 3", "value": "−38", "unit": "%"}, {"measurement": "Mean change from baseline in weekly frequency of moderate to severe VMS", "setting": "5 mg E4 QD per os, week 4", "value": "−27.57"}, {"measurement": "Relative change (% from baseline) in weekly frequency of moderate to severe VMS, mean", "setting": "5 mg E4 QD per os, week 4", "value": "−43", "unit": "%"}, {"measurement": "Mean change from baseline in weekly frequency of moderate to severe VMS", "setting": "5 mg E4 QD per os, week 5", "value": "−30.70"}, {"measurement": "Relative change (% from baseline) in weekly frequency of moderate to severe VMS, mean", "setting": "5 mg E4 QD per os, week 5", "value": "−47", "unit": "%"}, {"measurement": "Mean change from baseline in weekly frequency of moderate to severe VMS", "setting": "5 mg E4 QD per os, week 6", "value": "−38.02"}, {"measurement": "Relative change (% from baseline) in weekly frequency of moderate to severe VMS, mean", "setting": "5 mg E4 QD per os, week 6", "value": "−57", "unit": "%"}, {"measurement": "Mean change from baseline in weekly frequency of moderate to severe VMS", "setting": "5 mg E4 QD per os, week 7", "value": "−38.23"}, {"measurement": "Relative change (% from baseline) in weekly frequency of moderate to severe VMS, mean", "setting": "5 mg E4 QD per os, week 7", "value": "−57", "unit": "%"}, {"measurement": "Mean change from baseline in weekly frequency of moderate to severe VMS", "setting": "5 mg E4 QD per os, week 8", "value": "−38.55"}, {"measurement": "Relative change (% from baseline) in weekly frequency of moderate to severe VMS, mean", "setting": "5 mg E4 QD per os, week 8", "value": "−57", "unit": "%"}, {"measurement": "Mean change from baseline in weekly frequency of moderate to severe VMS", "setting": "5 mg E4 QD per os, week 9", "value": "−39.34"}, {"measurement": "Relative change (% from baseline) in weekly frequency of moderate to severe VMS, mean", "setting": "5 mg E4 QD per os, week 9", "value": "−59", "unit": "%"}, {"measurement": "Mean change from baseline in weekly frequency of moderate to severe VMS", "setting": "5 mg E4 QD per os, week 10", "value": "−39.83"}, {"measurement": "Relative change (% from baseline) in weekly frequency of moderate to severe VMS, mean", "setting": "5 mg E4 QD per os, week 10", "value": "−60", "unit": "%"}, {"measurement": "Mean change from baseline in weekly frequency of moderate to severe VMS", "setting": "5 mg E4 QD per os, week 11", "value": "−41.46"}, {"measurement": "Relative change (% from baseline) in weekly frequency of moderate to severe VMS, mean", "setting": "5 mg E4 QD per os, week 11", "value": "−63", "unit": "%"}, {"measurement": "Mean change from baseline in weekly frequency of moderate to severe VMS", "setting": "5 mg E4 QD per os, week 12", "value": "−40.60"}, {"measurement": "Relative change (% from baseline) in weekly frequency of moderate to severe VMS, mean", "setting": "5 mg E4 QD per os, week 12", "value": "−62", "unit": "%"}, {"measurement": "Difference with placebo, LS adjusted mean, absolute change in weekly frequency of moderate to severe VMS", "setting": "[1]", "value": 6.359}, {"measurement": "Difference with placebo, LS adjusted mean, relative change in weekly frequency of moderate to severe VMS", "setting": "[1]", "value": 0.06833}, {"measurement": "Difference with placebo, LS adjusted mean, absolute change in weekly frequency of moderate to severe VMS", "setting": "week 4, without site effect", "value": 5.781}, {"measurement": "Difference with placebo, LS adjusted mean, relative change in weekly frequency of moderate to severe VMS", "setting": "week 4, without site effect", "value": 0.05854}, {"measurement": "Difference with placebo, LS adjusted mean, absolute change in weekly frequency of moderate to severe VMS", "setting": "[2]", "value": 3.054}, {"measurement": "Difference with placebo, LS adjusted mean, relative change in weekly frequency of moderate to severe VMS", "setting": "[2]", "value": 0.03978}, {"measurement": "Difference with placebo, LS adjusted mean, absolute change in weekly frequency of moderate to severe VMS", "setting": "week 12, without site effect", "value": 2.918}, {"measurement": "Difference with placebo, LS adjusted mean, relative change in weekly frequency of moderate to severe VMS", "setting": "week 12, without site effect", "value": 0.03671}, {"measurement": "LS adjusted mean change from baseline in weekly frequency of moderate to severe VMS", "setting": "[1]", "value": "−35.37"}, {"measurement": "LS adjusted mean relative change (%) from baseline in weekly frequency of moderate to severe VMS", "setting": "[1]", "value": -54.5, "unit": "%"}, {"measurement": "LS adjusted mean change from baseline in weekly frequency of moderate to severe VMS", "setting": "week 4, without site effect", "value": "−35.87"}, {"measurement": "LS adjusted mean relative change (%) from baseline in weekly frequency of moderate to severe VMS", "setting": "week 4, without site effect", "value": -55.5, "unit": "%"}, {"measurement": "LS adjusted mean change from baseline in weekly frequency of moderate to severe VMS", "setting": "[2]", "value": "−45.84"}, {"measurement": "LS adjusted mean relative change (%) from baseline in weekly frequency of moderate to severe VMS", "setting": "[2]", "value": -70, "unit": "%"}, {"measurement": "LS adjusted mean change from baseline in weekly frequency of moderate to severe VMS", "setting": "week 12, without site effect", "value": "−46.53"}, {"measurement": "LS adjusted mean relative change (%) from baseline in weekly frequency of moderate to severe VMS", "setting": "week 12, without site effect", "value": -71.7, "unit": "%"}, {"measurement": "Mean change from baseline in weekly frequency of moderate to severe VMS", "setting": "10 mg E4 QD per os, week 1", "value": "−13.37"}, {"measurement": "Relative change (% from baseline) in weekly frequency of moderate to severe VMS, mean", "setting": "10 mg E4 QD per os, week 1", "value": "−21", "unit": "%"}, {"measurement": "Mean change from baseline in weekly frequency of moderate to severe VMS", "setting": "10 mg E4 QD per os, week 2", "value": "−23.47"}, {"measurement": "Relative change (% from baseline) in weekly frequency of moderate to severe VMS, mean", "setting": "10 mg E4 QD per os, week 2", "value": "−37", "unit": "%"}, {"measurement": "Mean change from baseline in weekly frequency of moderate to severe VMS", "setting": "10 mg E4 QD per os, week 3", "value": "−31.34"}, {"measurement": "Relative change (% from baseline) in weekly frequency of moderate to severe VMS, mean", "setting": "10 mg E4 QD per os, week 3", "value": "−48", "unit": "%"}, {"measurement": "Mean change from baseline in weekly frequency of moderate to severe VMS", "setting": "10 mg E4 QD per os, week 4", "value": "−36.38"}, {"measurement": "Relative change (% from baseline) in weekly frequency of moderate to severe VMS, mean", "setting": "10 mg E4 QD per os, week 4", "value": "−55", "unit": "%"}, {"measurement": "Mean change from baseline in weekly frequency of moderate to severe VMS", "setting": "10 mg E4 QD per os, week 5", "value": "−39.07"}, {"measurement": "Relative change (% from baseline) in weekly frequency of moderate to severe VMS, mean", "setting": "10 mg E4 QD per os, week 5", "value": "−60", "unit": "%"}, {"measurement": "Mean change from baseline in weekly frequency of moderate to severe VMS", "setting": "10 mg E4 QD per os, week 6", "value": "−42.56"}, {"measurement": "Relative change (% from baseline) in weekly frequency of moderate to severe VMS, mean", "setting": "10 mg E4 QD per os, week 6", "value": "−65", "unit": "%"}, {"measurement": "Mean change from baseline in weekly frequency of moderate to severe VMS", "setting": "10 mg E4 QD per os, week 7", "value": "−43.30"}, {"measurement": "Relative change (% from baseline) in weekly frequency of moderate to severe VMS, mean", "setting": "10 mg E4 QD per os, week 7", "value": "−66", "unit": "%"}]}]}
